Laboratory results reported in PMC2865816, “Synthesis and Antiviral Studies of Novel N-Sulphonamidomethyl piperazinyl Fluoroquinolones” (Indian Journal of Pharmaceutical Sciences, 2009).
pEC50: −log10 of the molar value. ≈ marks a conversion by molar mass, not a printed value. Read-outs that look alike come from different tables or passages of the source.

How the values were obtained:
in vitro = settings: dog
influenza A (H5N1) = experiment: microbe, parasite or virus in culture; type: cell-based; settings: for EC50: Influenza A virus, H5N1, MDCK, read-out: EC50, 50% effective (virus-inhibitory) concentration; for Selectivity Index (CC50 divided by EC50): strain A(H5N1), MDCK cells
influenza A (H3N2) = experiment: microbe, parasite or virus in culture; type: cell-based; settings: for EC50: Influenza A virus, H3N2, MDCK, read-out: EC50, 50% effective (virus-inhibitory) concentration; for Selectivity Index (CC50 divided by EC50): strain A(H3N2), MDCK cells
influenza A (H1N1) = experiment: microbe, parasite or virus in culture; type: cell-based; settings: strain A(H1N1), MDCK cells; for EC50: Influenza A virus, CPE inhibition, neutral red, read-out: EC50, 50% effective (virus-inhibitory) concentration
[1] = Cytotoxicity against mock-infected MT-4 cells, MTT; type: cell-based; settings: human; mock-infected MT-4 cells, MTT; read-out: CC50, concentration required to reduce the viability of mock-infected MT-4 cells by 50%
Protocol: (§1) Compounds were tested for their inhibitory effects against replication of HIV-1 (IIIB) in MT-4 cells[1011]. The MT-4 cells were grown and maintained in RPMI 1640 DM medium supplemented with 10% (v/v) heat-inactivated fetal calf serum (FCS), 2 mM-glutamine, 0.1% sodium bicarbonate and 20 μg/ml gentamicin (culture medium). Inhibitory effect of test compounds on HIV-1 replications was monitored by inhibition of virus-induced cytopathic effect in MT-4 cells and was estimated by MTT assay. Briefly, 50 μl of HIV-1 (100-300 CCID50) were added to a flat-bottomed microtiter tray with 50 μl of medium containing various concentrations of compounds. MT-4 cells were added at a final concentration of 6×10^5 cells/ml. After 5 d of incubation at 37°, the number of viable cells were determined by the 3-(4,5-dimethylthiazol-2-yl)-2,5-diphenyl tetrazolium bromide (MTT) method. Cytotoxicity of test compounds against mock-infected MT-4 cells was also assessed by the MTT method. AntiHIV activity and cytotoxicity of standard AZT were also performed by a similar method in MT-4 cells.

influenza B = experiment: microbe, parasite or virus in culture; type: cell-based; settings: strain B, MDCK cells; for EC50: Influenza B virus, CPE inhibition, neutral red, read-out: EC50, 50% effective (virus-inhibitory) concentration
HIV-1 (IIIB) = experiment: Inhibition of HIV-1 (IIIB) induced cytopathic effect in MT-4 cells, MTT; type: cell-based; settings: for pEC50: MTT, 5 d, read-out: EC50, concentration achieving 50% protection of MT-4 cells against the cytopathic effect of HIV
mock-infected MT-4 cells = experiment: Cytotoxicity against mock-infected MT-4 cells, MTT; type: cell-based
Protocol: as §1

[2] = tested on: influenza A and B viruses; experiment: microbe, parasite or virus in culture; type: cell-based; settings: MDCK, read-out: concentration inhibiting the replication of influenza A and B viruses
[3] = Human immunodeficiency virus 1, MT4, 120 h

Row | Compound | CC50 (in vitro) | EC50 (influenza A (H5N1)) | Selectivity Index (CC50 divided by EC50) (influenza A (H5N1)) | EC50 (influenza A (H3N2)) | EC50 (influenza A (H1N1)) | Selectivity Index (CC50 divided by EC50) (influenza A (H1N1)) | CC50 at 5 d [1] | EC50 (influenza B) | Selectivity Index (CC50 divided by EC50) (influenza B) | pEC50 (HIV-1 (IIIB); [3]) | Selectivity Index (CC50 divided by EC50) (influenza A (H3N2)) | cytostatic activity in MT-4 cells (in words) (mock-infected MT-4 cells; MT-4 cells) | CC50 (mock-infected MT-4 cells; mock-infected MT-4 cells, MTT, read-out: CC50, concentration required to reduce the viability of mock-infected MT-4 cells by 50%) | Max Prot (HIV-1 (IIIB)) | pEC50 (HIV-1 (IIIB)) | EC50 [2] | CC50 at 3 d (in vitro)
1 | O=C(O)c1cn(C2CC2)c2cc(N3CCN(CNc4ccc(S(=O)(=O)Nc5ncccn5)cc4)CC3)c(F)cc2c1=O [CF-SD] | > 100 µg/mL | 33 µg/mL (≈ 55.6 µM) | >3 | 41 µg/mL (≈ 69.1 µM) | 16 µg/mL (≈ 27 µM) | >6.1 | 74.1 µM | 32 µg/mL (≈ 53.9 µM) | >3 | < 4.13 |  |  |  |  |  |  | 
2 | COc1c(N2CCN(CNc3ccc(S(=O)(=O)Nc4nc(C)cc(C)n4)cc3)CC2)c(F)cc2c(=O)c(C(=O)O)cn(C3CC3)c12 [GF-SDM] | > 100 µg/mL | 19 µg/mL (≈ 29.2 µM) | >5 | 38 µg/mL (≈ 58.3 µM) | 33 µg/mL (≈ 50.6 µM) | >3.1 | 39.4 µM | 11 µg/mL (≈ 16.9 µM) | >9 | < 4.40 | >2.6 | marked cytostatic activity |  |  |  |  | 
3 | COc1c(N2CCN(CNc3ccc(S(N)(=O)=O)cc3)CC2)c(F)cc2c(=O)c(C(=O)O)cn(C3CC3)c12 [GF-SA] | > 100 µg/mL | 32 µg/mL (≈ 58.7 µM) | >3 | > 100 µg/mL | > 100 µg/mL |  | 58.7 µM | 36 µg/mL (≈ 66 µM) | >3 | < 4.23 |  |  |  |  |  |  | 
4 | CCn1cc(C(=O)O)c(=O)c2cc(F)c(N3CCN(CNc4ccc(S(N)(=O)=O)cc4)CC3)cc21 [NF-SA] | > 100 µg/mL | > 100 µg/mL |  | > 100 µg/mL | > 100 µg/mL |  | 75.5 µM | 80 µg/mL (≈ 159 µM) | >1.3 | < 4.12 |  |  |  |  |  |  | 
5 | CCn1cc(C(=O)O)c(=O)c2cc(F)c(N3CCN(CNc4ccc(S(=O)(=O)Nc5nc(C)cc(C)n5)cc4)CC3)cc21 [NF-SDM] |  |  |  |  |  |  | 56.3 µM |  |  | < 4.25 |  |  |  |  |  |  | 
6 | Cc1cn([C@H]2C[C@H](N=[N+]=[N-])[C@@H](CO)O2)c(=O)[nH]c1=O [AZT, reference compound] |  |  |  |  |  |  |  |  |  |  |  |  | 64.5 µM | 106 | 8.19 |  | 
7 | NC(=O)c1ncn([C@@H]2O[C@H](CO)[C@@H](O)[C@H]2O)n1 [Ribavirin, ribavirin, reference compound] | > 100 µg/mL | 4.3 µg/mL (≈ 17.6 µM) | >23 | 5.9 µg/mL (≈ 24.2 µM) | 3.7 µg/mL (≈ 15.2 µM) | >27 |  | 5.5 µg/mL (≈ 22.5 µM) | >18 |  | >17 |  |  |  |  | 3.7 to 5.9 µg/mL (≈ 15.2 to 24.2 µM) | 
8 | COc1c(N2CCN(CNc3ccc(S(=O)(=O)Nc4ncccn4)cc3)CC2)c(F)cc2c(=O)c(C(=O)O)cn(C3CC3)c12 [GF-SD] | > 100 µg/mL | > 100 µg/mL |  | 52 µg/mL (≈ 83.4 µM) | 34 µg/mL (≈ 54.5 µM) | >3 | 70.1 µM | 97 µg/mL (≈ 156 µM) | >1 | < 4.15 | >1.9 |  |  |  |  |  | 
9 | CCn1cc(C(=O)O)c(=O)c2cc(F)c(N3CCN(CNc4ccc(S(=O)(=O)Nc5ncccn5)cc4)CC3)cc21 [NF-SD] |  | > 32 µg/mL |  | > 100 µg/mL | > 100 µg/mL |  | 66.8 µM | > 32 µg/mL |  | < 4.17 |  |  |  |  |  |  | 32 µg/mL (≈ 55 µM)
10 | Cc1cc(C)nc(NS(=O)(=O)c2ccc(NCN3CCN(c4cc5c(cc4F)c(=O)c(C(=O)O)cn5C4CC4)CC3)cc2)n1 [CF-SDM] | > 100 µg/mL | > 100 µg/mL |  | 30 µg/mL (≈ 48.3 µM) | 18 µg/mL (≈ 29 µM) | >5.6 | 70.8 µM | 53 µg/mL (≈ 85.3 µM) | >2 | < 4.15 | >3.3 |  |  |  |  |  | 
